{
  "source": "patent US7919471B2",
  "about": "“Method of modulating cell survival and reagents useful for same” (The University of Queensland, priority 1998, dated 2011)",
  "key": {"membrane bound c35": {"test_system": "membrane bound c35", "test": "Protection by soluble c35 / 29mer against death signalling from membrane-bound c35", "assay_type": "cell-based", "details": "for protection against membrane-linked, expressed c35: FIG. 7, microinjection of sptc35, peptide 30 minutes later", "protocol": "FIG. 7 is a graphical representation showing protection of membrane-bound killing-domain by a soluble 35 amino acid peptide and a soluble 29 amino acid peptide. The cells were subjected to microinjection of sptc35 or GFP followed 30 minutes later by either peptide c35 or the 29mer peptide."}, "p75^NTR-mediated death": {"test_system": "p75^NTR-mediated death", "test": "Modulation of p75NTR-induced killing of microinjected DRG neurons by co-expressed proteins, antisense or caspase inhibitors", "assay_type": "cell-based, mouse", "details": "for p75^NTR-mediated (induced) neural death: neurons over-expressing p75^NTR, in LIF, agent present or co-expressed", "excerpt": "The inventors hypothesised that the free cytoplasmic expressed 35 amino acid domain might be able to interfere with death signalling from full length p75^NTR proteins by a dominant-negative mechanism, and attempted to inhibit the death by co-expressing the proteins. Given the results presented below regarding the ability of overexpression of Bcl-2 to enhance p75^NTR killing, this paradigm was used to test the ability of the c35 protein to inhibit death signalling.\nAs the inventors had shown that the death of dorsal root ganglia (DRG) sensory neurons in vitro and in vivo, was, at least in part, mediated by p75^NTR, p75^NTR was over-expressed in these cells by microinjecting rat p75^NTR cDNA expressing plasmid into the nucleus of mouse sensory neurons. These were cultured in the presence of the LIF to prevent neural death not linked to p75^NTR mechanisms. […] The injected neurons were observed over a 48 hour period and the viability was assessed. […] This was expected since the cytoplasmic tail contains a sequence with homology to the Fas/TNFR “death domain” [9].\nThe Bcl-2 family of proteins is involved in mediating apoptotic signalling pathways, and can homodimerise or heterodimerise with other family members. Bcl-2 and Bcl-xL are well characterised inhibitors of stress-induced apoptosis, JNK activation and neural death due to growth-factor limitation. However, both are poor inhibitors of Fas and TNFR mediated opoptosis. As it had been shown previously that high levels of Bcl-2 or Bcl-xL blocked neural cell death in a variety of models, the inventors examined whether over-expression of these proteins could block the death induced by p75^NTR.\nThe inventors tested, therefore, whether high endogenous Bcl-2 levels might be necessary for successful p75^NTR-mediated killing in normal neurons by assaying p75^NTR killing in Bcl-2 depleted cells. Endogenous Bcl-2 was down regulated by antisense as previously described.\nTo investigate whether the p75^NTR-Bcl-2 death-signalling cascade was dependent on caspase activation, inhibitors of caspases were employed."}, "[1]": {"test_system": "dorsal root ganglia (DRG) sensory neurons", "test": "Microinjection of plasmid expression constructs into DRG neurons cultured in LIF; survival of injected neurons", "assay_type": "cell-based, mouse", "details": "microinjected DRG neurons cultured in LIF", "protocol": "In order to investigate how p75^NTR signals neural death, the inventors devised a robust in vitro assay for p75^NTR induced death. Plasmid expression constructs were microinjected into individual neurons in the presence of the growth factor LIF, and the survival of the neurons expressing the different plasmids was determined. A series of plasmid constructs which encode incomplete p75^NTR proteins were made (see FIG. 1) and the ability of each protein to signal death when over expressed was assessed.\nTo further investigate the domain required for death signalling the inventors made constructs expressing p75^NTR proteins deleted for the extracellular domain or the extracellular and transmembrane domains. Proteins without extracellular domains retain the signal peptide which is responsible for correctly transporting the protein into the cell membrane. Proteins without transmembrane domains are expressed free in the cytoplasm of the cell and are epitope tagged with a FLAG motif for detection.\nAs the inventors had shown that the death of dorsal root ganglia (DRG) sensory neurons in vitro and in vivo, was, at least in part, mediated by p75^NTR, p75^NTR was over-expressed in these cells by microinjecting rat p75^NTR cDNA expressing plasmid into the nucleus of mouse sensory neurons. […] The injected neurons were observed over a 48 hour period and the viability was assessed. […]"}, "neurons": {"test_system": "neurons", "test": "Neural death after growth factor withdrawal with Bcl-2 over-expression", "assay_type": "cell-based, mouse", "excerpt": "Thus, at the same expression levels in the same neural population, Bcl-2 was able to prevent or enhance neural cell death depending on the nature of the death signal."}, "Schwann cells": {"test_system": "Schwann cells", "test": "Protection of Schwann cells against NGF-induced death", "assay_type": "cell-based", "details": "expressed from a genetic construct"}, "cells": {"test_system": "cells", "test": "Cell death mediated by palmitoylated (membrane-linked) peptides", "assay_type": "cell-based", "details": "FIG. 8", "protocol": "FIG. 8 is a graphical representation showing that peptide 29 which has a palmitoyl group at the membrane (amino) end and which facilitates association with the membrane mediates to cell death. […] F, Fluoro tagged; pen, penetratin.\nCells were treated with 2 μM peptide for 1-2 hours then washed. pen, penetratin, F29, 29 mer; Palm, palmitoylation. • ? pen F29 • ? pen F29 Palm • ? pen gp130 Palm • ? pen\nThe palmitoylation links the peptide to the plasma membrane. This membrane-linked 29mer leads to cell death whereas its soluble form protects cells against p75^NTR-mediated death signalling.\nCells were washed with peptide (2 μM) for approximately 110 minutes and the cells were then washed. Controls included penetratin-fused 29 mer, palmitoylated penetratin-fused 29 mer palmitoylated penetratin-fused gp130 and penetratin alone."}},
  "note": "Where no end group is shown, it is not given here.",
  "data": [
    {"substance": "29mer: truncated form of the 35mer; six amino acids deleted from the C-terminal end (SEQ ID NO:12) (KRWNSCKQNKQGANSRPVNQTPPPEGEKL; listed as Rattus norvegicus)", "values": [
      {"measurement": "protection against membrane-linked, expressed c35", "setting": "membrane bound c35", "value": "also protected against membrane-bound c35"}
    ]},
    {"substance": "Bcl-2 W188A protein: Bcl-2 protein with inactivating point mutation W188A in the BH2 domain", "values": [
      {"measurement": "p75^NTR-mediated (induced) neural death", "setting": "p75^NTR-mediated death", "value": "protected neurons from any p75^NTR-induced death"}
    ]},
    {"substance": "Bcl-2: over-expressed wildtype Bcl-2 protein", "values": [
      {"measurement": "neural death / survival after expression of the construct alone", "setting": "[1]", "value": "had no effect on cell survival"},
      {"measurement": "p75^NTR-mediated (induced) neural death", "setting": "p75^NTR-mediated death", "value": "induced a significant increase in neural death"},
      {"measurement": "neural death induced by NGF withdrawal", "setting": "neurons", "value": "able to protect against neural death induced by NGF withdrawal"}
    ]},
    {"substance": "G145E: Bcl-2 protein with inactivating point mutation G145E in the BH1 domain", "values": [
      {"measurement": "p75^NTR-mediated (induced) neural death", "setting": "p75^NTR-mediated death", "value": "enhanced killing effect seen with Bcl-2 coexpression was abrogated"}
    ]},
    {"substance": "c35 protein: free cytoplasmic 35 amino acid p75NTR domain expressed from a plasmid, not membrane associated, FLAG tagged (KRWNSCKQNKQGANSRPVNQTPPPEGEKLHSDSGI; also: FLAG tagged, end not given here; listed as Rattus norvegicus)", "values": [
      {"measurement": "protection of Schwann cells against NGF-induced death", "setting": "Schwann cells", "value": "protected Schwann cells against NGF-induced death"},
      {"measurement": "neural death / survival after expression of the construct alone", "setting": "[1]", "value": "ability of the domain to induce death is removed"},
      {"measurement": "killing induced by co-expression of p75^NTR and Bcl-2", "setting": "p75^NTR-mediated death; co-expression in DRG neurons (FIG. 5)", "value": "able to inhibit this killing"},
      {"measurement": "protection against membrane bound c35", "setting": "membrane bound c35; expressed in soluble form", "value": "can also protect cells against membrane bound c35"}
    ]},
    {"substance": "soluble c35: 35 amino acid domain of p75NTR juxtaposed to the membrane, in soluble form (SEQ ID NO:8) (KRWNSCKQNKQGANSRPVNQTPPPEGEKLHSDSGI; listed as Rattus norvegicus)", "values": [
      {"measurement": "cell death / protection", "setting": "cells", "value": "tends to protect the cells"},
      {"measurement": "protection from death signalling by membrane bound c35", "setting": "membrane bound c35; FIG. 6", "value": "protects cells from death signalling in a dose-dependent manner"},
      {"measurement": "protection against membrane-linked, expressed c35", "setting": "membrane bound c35", "value": "can also protect against membrane-linked, expressed c35"}
    ]},
    {"substance": "z-VAD [reference compound]", "values": [
      {"measurement": "p75^NTR-mediated (induced) neural death", "setting": "p75^NTR-mediated death", "value": "significantly reduced"}
    ]}
  ]
}
